Laboratory results published in ChEMBL document CHEMBL1759923, “Preparation, in vitro screening and molecular modelling of symmetrical bis-quinolinium cholinesterase inhibitors--implications for early myasthenia gravis treatment” (Bioorg Med Chem Lett, 2011).
Activity calls are given as the source filed them. The calls are words filed in the database; no cut-off is given here.

Experiments:
Acetylcholinesterase [1] = target: T1, Acetylcholinesterase (Homo sapiens, UniProt P22303); test: Inhibition of human erythrocyte recombinant AChE by modified Ellman's method
T1 sequence (P22303 whole entry): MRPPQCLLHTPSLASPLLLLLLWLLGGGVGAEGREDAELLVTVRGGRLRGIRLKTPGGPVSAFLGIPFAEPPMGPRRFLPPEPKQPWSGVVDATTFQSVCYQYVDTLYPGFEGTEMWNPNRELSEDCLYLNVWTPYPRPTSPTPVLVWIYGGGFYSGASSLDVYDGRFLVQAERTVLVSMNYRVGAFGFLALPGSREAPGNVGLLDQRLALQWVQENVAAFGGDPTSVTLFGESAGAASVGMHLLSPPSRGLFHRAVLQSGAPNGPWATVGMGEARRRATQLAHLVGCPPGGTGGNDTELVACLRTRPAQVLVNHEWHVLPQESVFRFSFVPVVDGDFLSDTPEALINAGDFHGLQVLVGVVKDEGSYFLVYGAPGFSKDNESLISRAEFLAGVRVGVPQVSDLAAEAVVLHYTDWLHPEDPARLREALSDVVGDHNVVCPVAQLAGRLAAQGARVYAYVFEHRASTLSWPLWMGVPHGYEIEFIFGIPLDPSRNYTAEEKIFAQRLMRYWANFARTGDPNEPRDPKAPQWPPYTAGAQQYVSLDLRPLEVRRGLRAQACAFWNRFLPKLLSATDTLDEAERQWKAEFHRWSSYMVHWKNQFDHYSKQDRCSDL

Cholinesterase = Cholinesterase (Homo sapiens, UniProt P06276); test: Inhibition of human plasmatic BChE by modified Ellman's method; parameters: species or system Plasma
Cholinesterase, sequence (P06276 whole entry): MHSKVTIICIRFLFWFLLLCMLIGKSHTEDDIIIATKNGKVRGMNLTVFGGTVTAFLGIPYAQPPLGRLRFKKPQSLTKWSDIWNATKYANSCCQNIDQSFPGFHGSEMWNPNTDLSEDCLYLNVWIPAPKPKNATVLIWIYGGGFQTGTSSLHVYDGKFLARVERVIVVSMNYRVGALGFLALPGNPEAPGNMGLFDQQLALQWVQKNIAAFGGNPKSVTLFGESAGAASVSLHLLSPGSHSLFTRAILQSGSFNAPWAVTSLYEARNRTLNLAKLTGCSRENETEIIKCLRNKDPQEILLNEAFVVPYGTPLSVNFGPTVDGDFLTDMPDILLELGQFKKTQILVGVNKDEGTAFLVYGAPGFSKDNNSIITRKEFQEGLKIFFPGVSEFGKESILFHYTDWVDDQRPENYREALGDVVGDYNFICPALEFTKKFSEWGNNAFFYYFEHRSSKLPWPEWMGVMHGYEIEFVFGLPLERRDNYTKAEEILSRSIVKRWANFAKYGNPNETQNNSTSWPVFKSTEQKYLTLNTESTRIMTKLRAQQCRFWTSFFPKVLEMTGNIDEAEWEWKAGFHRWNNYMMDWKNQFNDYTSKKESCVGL

Acetylcholinesterase [2] = target: T1, Acetylcholinesterase; test: Inhibition of human erythrocytes recombinant AChE assessed as dissociation constant for enzyme-inhibitor complex
Acetylcholinesterase [3] = target: T1, Acetylcholinesterase; test: Inhibition of human erythrocytes recombinant AChE assessed as dissociation constant for enzyme-inhibitor-substrate complex
Acetylcholinesterase [4] = target: T1, Acetylcholinesterase; test: Inhibition of human erythrocyte recombinant AChE at 0.1 mM to […] by modified Ellman's method

| SMILES | IC50 (Acetylcholinesterase [1]) [µM] | IC50 (Cholinesterase) [µM] | Ki (Acetylcholinesterase [2]) [µM] | Ki (Acetylcholinesterase [3]) [µM] | inhibition (Acetylcholinesterase [4]) |
| --- | --- | --- | --- | --- | --- |
| c1ccc2c(c1)ccc[n+]2CCCCCCCCCCCC[n+]1cccc2ccccc21 | 0.02 | 0.4 |  |  |  |
| C[N+](C)(CCNC(=O)C(=O)NCC[N+](C)(C)Cc1ccccc1Cl)Cc1ccccc1Cl [AMBENONIUM DICHLORIDE] |  | 7 |  |  |  |
| C(=C\C[n+]1cccc2ccccc21)/C[n+]1cccc2ccccc21 | 6 | 308 |  |  |  |
| c1ccc(C[n+]2cccc3ccccc32)c(C[n+]2cccc3ccccc32)c1 | 35 | 6 |  |  |  |
| c1ccc2c(c1)ccc[n+]2CCOCC[n+]1cccc2ccccc21 | 35 | 48 |  |  |  |
| c1ccc2c(c1)ccc[n+]2Cc1ccc2ccc(C[n+]3cccc4ccccc43)cc2c1 | 0.8 | 0.2 | 2.3 | 8.2 |  |
| c1ccc2c(c1)ccc[n+]2CCC[n+]1cccc2ccccc21 | 9 | 13 |  |  |  |
| c1cc(C[n+]2cccc3ccccc32)cc(C[n+]2cccc3ccccc32)c1 | 40 | 20 |  |  |  |
| C(=C/C[n+]1cccc2ccccc21)/C[n+]1cccc2ccccc21 | 2 | 0.8 |  |  |  |
| c1ccc2c(c1)ccc[n+]2CCCCCCCC[n+]1cccc2ccccc21 | 0.08 | 0.7 |  |  |  |
| c1ccc2c(c1)ccc[n+]2CCCCCCC[n+]1cccc2ccccc21 | 0.09 | 0.4 |  |  |  |
| c1ccc2c(c1)ccc[n+]2CCCC[n+]1cccc2ccccc21 | 38 | 32 |  |  |  |
| c1ccc2c(c1)ccc[n+]2CCCCCCCCCCC[n+]1cccc2ccccc21 | 0.01 | 0.5 |  |  |  |
| c1ccc2c(c1)ccc[n+]2CCCCCCCCC[n+]1cccc2ccccc21 | 0.08 | 0.6 |  |  |  |
| c1ccc2c(c1)ccc[n+]2COC[n+]1cccc2ccccc21 | 418 | 871 |  |  |  |
| c1ccc2c(c1)ccc[n+]2Cc1ccc(C[n+]2cccc3ccccc32)cc1 |  |  |  |  | inactive |
| c1ccc2c(c1)ccc[n+]2CCCCC[n+]1cccc2ccccc21 | 4 | 34 |  |  |  |
| c1ccc2c(c1)ccc[n+]2CCCCCC[n+]1cccc2ccccc21 | 25 | 5 |  |  |  |
